Experimental data reported in ChEMBL document CHEMBL4038272, “Synthesis and biological evaluation of novel podophyllotoxin-NSAIDs conjugates as multifunctional anti-MDR agents against resistant human hepatocellular carcinoma Bel-7402/5-FU cells” (Eur J Med Chem, 2017).
Active and inactive are the calls of the source. The calls are words filed in the database; no cut-off is given here.

How the values were obtained:
Bel-7402 = experiment: Antiproliferative activity against human Bel7402 cells after 72 hrs by CCK-8 assay; type: functional, cell-based; conditions: Bel-7402, 72 h
Bel7402/5-FU [1] = experiment: Antiproliferative activity against human Bel7402/5-FU cells after 72 hrs by CCK-8 assay; type: functional, cell-based
L02 = experiment: Antiproliferative activity against human LO2 cells after 72 hrs by CCK-8 assay; type: cell-based; conditions: L02, 72 h
[2] = Resistant factor, ratio of IC50 for human Bel7402/5-FU cells to IC50 for human Bel7402 cells; type: functional
Bel7402/5-FU [3] = experiment: Cell cycle arrest in human Bel7402/5-FU cells assessed as accumulation at G1 phase at 2 uM after 48 hrs by propidium iodide staining based flow cytometry (reference value: 52.21%); type: functional
Bel7402/5-FU [4] = experiment: Cell cycle arrest in human Bel7402/5-FU cells assessed as accumulation at S phase at 2 uM after 48 hrs by propidium iodide staining based flow cytometry (reference value: 12.62%); type: functional
Bel7402/5-FU [5] = experiment: Cell cycle arrest in human Bel7402/5-FU cells assessed as accumulation at G2 phase at 2 uM after 48 hrs by propidium iodide staining based flow cytometry (reference value: 35.16%); type: functional
Bel7402/5-FU [6] = experiment: Induction of apoptosis in human Bel7402/5-FU cells assessed as reduction in cell number at 2 uM after 24 hrs by Hoechst 33342 staining based fluorescent microscopic method; type: functional
Bel7402/5-FU [7] = experiment: Induction of apoptosis in human Bel7402/5-FU cells assessed as morphological changes at 2 uM after 24 hrs by Hoechst 33342 staining based fluorescent microscopic method; type: functional, cell-based
Bel7402/5-FU [8] = experiment: Induction of apoptosis in human Bel7402/5-FU cells assessed as condensed nuclei at 2 uM after 24 hrs by Hoechst 33342 staining based fluorescent microscopic method; type: functional, cell-based
Bel7402/5-FU [9] = experiment: Induction of apoptosis in human Bel7402/5-FU cells at 2 uM after 24 hrs by Hoechst 33342 staining based fluorescent microscopic method; type: functional, cell-based
Bel7402/5-FU [10] = experiment: Induction of apoptosis in human Bel7402/5-FU cells assessed as live cells at 2 uM after 48 hrs by Annexin V-APC/7-AAD staining based flow cytometry (reference value: 91.08%); type: functional
Bel7402/5-FU [11] = experiment: Induction of apoptosis in human Bel7402/5-FU cells assessed as early apoptotic cells at 2 uM after 48 hrs by Annexin V-APC/7-AAD staining based flow cytometry (reference value: 5.24%); type: functional
Bel7402/5-FU [12] = experiment: Induction of apoptosis in human Bel7402/5-FU cells assessed as late apoptotic cells at 2 uM after 48 hrs by Annexin V-APC/7-AAD staining based flow cytometry (reference value: 3%); type: functional
Bel7402/5-FU [13] = experiment: Induction of apoptosis in human Bel7402/5-FU cells assessed as necrotic cells at 2 uM after 48 hrs by Annexin V-APC/7-AAD staining based flow cytometry (reference value: 0.58%); type: functional
Bel7402/5-FU [14] = experiment: Induction of microtubule disruption in human Bel7402/5-FU cells at 2 uM after 24 to 48 hrs by DAPI staining based immunofluorescence microscopic method; type: functional, cell-based
Bel7402/5-FU [15] = experiment: Reduction in microtubule density in human Bel7402/5-FU cells at 2 uM after 24 to 48 hrs by DAPI staining based immunofluorescence microscopic method; type: functional, cell-based
Bel7402/5-FU [16] = experiment: Antimigratory activity in human Bel7402/5-FU cells at 2 uM after 24 hrs by wound healing assay; type: functional, cell-based
Bel7402/5-FU [17] = experiment: Effect on CDK1 expression in human Bel7402/5-FU cells assessed as ratio of CDK1 to beta-actin level at 2 uM after 48 hrs by Western blot analysis (reference value: 0.33); type: functional
Bel7402/5-FU [18] = experiment: Effect on CDK2 expression in human Bel7402/5-FU cells assessed as ratio of CDK2 to beta-actin level at 2 uM after 48 hrs by Western blot analysis (reference value: 0.43); type: functional
Bel7402/5-FU [19] = experiment: Effect on cyclinA expression in human Bel7402/5-FU cells assessed as ratio of cyclinA to beta-actin level at 2 uM after 48 hrs by Western blot analysis (reference value: 0.39); type: functional
Bel7402/5-FU [20] = experiment: Effect on cyclinB1 expression in human Bel7402/5-FU cells assessed as ratio of cyclinB1 to beta-actin level at 2 uM after 48 hrs by Western blot analysis (reference value: 0.53); type: functional
Bel7402/5-FU [21] = experiment: Induction of apoptosis in human Bel7402/5-FU cells assessed as ratio of cleaved caspase-3 to beta-actin level at 2 uM after 48 hrs by Western blot analysis (reference value: 0.19); type: functional
Bel7402/5-FU [22] = experiment: Induction of apoptosis in human Bel7402/5-FU cells assessed as ratio of cleaved caspase-8 to beta-actin level at 2 uM after 48 hrs by Western blot analysis (reference value: 0.17); type: functional
Bel7402/5-FU [23] = experiment: Induction of apoptosis in human Bel7402/5-FU cells assessed as ratio of cleaved caspase-9 to beta-actin level at 2 uM after 48 hrs by Western blot analysis (reference value: 0.17); type: functional
Bel7402/5-FU [24] = experiment: Induction of apoptosis in human Bel7402/5-FU cells assessed as ratio of cleaved PARP to beta-actin level at 2 uM after 48 hrs by Western blot analysis (reference value: 0.2); type: functional
Bel7402/5-FU [25] = experiment: Effect on VEGFR2 expression in human Bel7402/5-FU cells assessed as ratio of VEGFR2 to beta-actin level at 2 uM after 48 hrs by Western blot analysis (reference value: 0.25); type: functional
Bel7402/5-FU [26] = experiment: Effect on MMP2 expression in human Bel7402/5-FU cells assessed as ratio of MMP2 to beta-actin level at 2 uM after 48 hrs by Western blot analysis (reference value: 0.3); type: functional
Bel7402/5-FU [27] = experiment: Effect on E-cadherin expression in human Bel7402/5-FU cells assessed as ratio of E-cadherin to beta-actin level at 2 uM after 48 hrs by Western blot analysis (reference value: 0.2); type: functional
Bel7402/5-FU [28] = experiment: Effect on COX1 expression in human Bel7402/5-FU cells assessed as ratio of COX1 to beta-actin level at 2 uM after 48 hrs by Western blot analysis (reference value: 0.48); type: functional
Bel7402/5-FU [29] = experiment: Effect on COX2 expression in human Bel7402/5-FU cells assessed as ratio of COX2 to beta-actin level at 2 uM after 48 hrs by Western blot analysis (reference value: 0.36); type: functional
Bel7402/5-FU [30] = experiment: Effect on iNOS expression in human Bel7402/5-FU cells assessed as ratio of iNOS to beta-actin level at 2 uM after 48 hrs by Western blot analysis (reference value: 0.13); type: functional
Bel7402/5-FU [31] = experiment: Effect on P-gp expression in human Bel7402/5-FU cells assessed as ratio of P-gp to beta-actin level at 2 uM after 48 hrs by Western blot analysis (reference value: 0.59); type: functional
Bel7402/5-FU [32] = experiment: Effect on MRP1 expression in human Bel7402/5-FU cells assessed as ratio of MRP1 to beta-actin level at 2 uM after 48 hrs by Western blot analysis (reference value: 0.58); type: functional
[33] = target: Mitogen-activated protein kinase; ERK1/ERK2 (Homo sapiens) (UniProt P27361+P28482); experiment: Effect on ERK1/2 phosphorylation in human Bel7402/5-FU cells assessed as ratio of phosphorylated ERK1/2 to beta-actin level at 2 uM after 48 hrs by Western blot analysis (reference value: 0.59); type: cell-based
[34] = target: Signal transducer and activator of transcription 3 (Homo sapiens) (UniProt P40763); experiment: Effect on STAT3 phosphorylation in human Bel7402/5-FU cells assessed as ratio of phosphorylated STAT3 to beta-actin level at 2 uM after 48 hrs by Western blot analysis (reference value: 0.3); type: cell-based
[35] = target: RAC-alpha serine/threonine-protein kinase (Homo sapiens) (UniProt P31749); experiment: Effect on AKT phosphorylation in human Bel7402/5-FU cells assessed as ratio of phosphorylated AKT to beta-actin level at 2 uM after 48 hrs by Western blot analysis (reference value: 0.39); type: cell-based
Sequence of RAC-alpha serine/threonine-protein kinase (Homo sapiens) (P31749 whole entry): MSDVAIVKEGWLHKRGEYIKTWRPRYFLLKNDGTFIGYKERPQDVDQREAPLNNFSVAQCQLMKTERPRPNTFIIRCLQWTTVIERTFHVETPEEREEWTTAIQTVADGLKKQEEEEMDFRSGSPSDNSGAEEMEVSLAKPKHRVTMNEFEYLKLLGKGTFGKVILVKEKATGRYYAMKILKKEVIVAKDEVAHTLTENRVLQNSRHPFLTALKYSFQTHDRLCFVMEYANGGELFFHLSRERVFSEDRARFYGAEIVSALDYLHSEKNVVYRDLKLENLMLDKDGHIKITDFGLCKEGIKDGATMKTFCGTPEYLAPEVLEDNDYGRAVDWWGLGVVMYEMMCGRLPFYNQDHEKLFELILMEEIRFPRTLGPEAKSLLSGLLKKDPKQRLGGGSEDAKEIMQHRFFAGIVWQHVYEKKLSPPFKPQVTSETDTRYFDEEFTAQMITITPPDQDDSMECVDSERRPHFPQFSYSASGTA

Sequence of Mitogen-activated protein kinase; ERK1/ERK2 (Homo sapiens) (P27361 whole entry, looked up): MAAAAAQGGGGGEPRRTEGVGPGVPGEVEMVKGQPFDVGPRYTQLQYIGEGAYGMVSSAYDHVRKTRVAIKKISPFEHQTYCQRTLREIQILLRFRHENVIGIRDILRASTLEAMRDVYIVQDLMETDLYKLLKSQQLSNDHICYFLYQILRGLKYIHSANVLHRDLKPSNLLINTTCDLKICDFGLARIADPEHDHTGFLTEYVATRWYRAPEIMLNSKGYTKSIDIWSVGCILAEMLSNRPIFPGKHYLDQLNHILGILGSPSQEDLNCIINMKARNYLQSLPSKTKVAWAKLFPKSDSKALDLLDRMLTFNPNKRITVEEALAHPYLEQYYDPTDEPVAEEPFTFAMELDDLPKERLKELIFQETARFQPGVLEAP
Sequence of Mitogen-activated protein kinase; ERK1/ERK2 (Homo sapiens) (P28482 whole entry, looked up): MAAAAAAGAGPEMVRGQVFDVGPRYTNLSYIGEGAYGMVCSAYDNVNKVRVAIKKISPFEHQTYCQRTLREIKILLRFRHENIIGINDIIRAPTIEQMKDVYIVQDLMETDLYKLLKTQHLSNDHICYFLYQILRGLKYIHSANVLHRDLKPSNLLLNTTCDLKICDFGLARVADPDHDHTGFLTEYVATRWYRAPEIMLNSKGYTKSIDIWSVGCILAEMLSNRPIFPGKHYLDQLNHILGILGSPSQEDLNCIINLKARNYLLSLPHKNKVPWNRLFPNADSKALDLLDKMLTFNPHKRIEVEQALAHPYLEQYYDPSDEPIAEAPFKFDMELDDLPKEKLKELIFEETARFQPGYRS
Sequence of Signal transducer and activator of transcription 3 (Homo sapiens) (P40763 whole entry): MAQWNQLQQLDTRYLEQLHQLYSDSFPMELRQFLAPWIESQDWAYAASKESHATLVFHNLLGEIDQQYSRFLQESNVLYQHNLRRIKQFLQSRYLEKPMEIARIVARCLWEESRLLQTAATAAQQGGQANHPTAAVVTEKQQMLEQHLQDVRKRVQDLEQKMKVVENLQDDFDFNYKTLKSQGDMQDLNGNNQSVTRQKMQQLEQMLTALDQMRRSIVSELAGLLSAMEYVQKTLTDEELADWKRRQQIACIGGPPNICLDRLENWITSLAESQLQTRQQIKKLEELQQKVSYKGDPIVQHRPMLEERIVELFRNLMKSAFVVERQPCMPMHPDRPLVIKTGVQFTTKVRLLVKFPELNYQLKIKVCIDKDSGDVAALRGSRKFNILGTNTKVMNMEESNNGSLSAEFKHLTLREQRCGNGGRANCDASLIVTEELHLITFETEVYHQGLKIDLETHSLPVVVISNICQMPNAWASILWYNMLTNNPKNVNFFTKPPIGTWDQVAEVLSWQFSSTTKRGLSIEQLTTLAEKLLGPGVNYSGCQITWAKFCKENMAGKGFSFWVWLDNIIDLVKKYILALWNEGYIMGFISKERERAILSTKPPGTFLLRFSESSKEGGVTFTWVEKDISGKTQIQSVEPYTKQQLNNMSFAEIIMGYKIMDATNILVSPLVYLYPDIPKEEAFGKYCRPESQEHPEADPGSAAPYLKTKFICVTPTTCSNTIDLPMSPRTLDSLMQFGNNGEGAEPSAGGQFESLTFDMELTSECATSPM

COc1ccc2c(c1)c(CC(=O)O[C@H]1c3cc4c(cc3[C@@H](c3cc(OC)c(OC)c(OC)c3)[C@H]3C(=O)OC[C@@H]31)OCO4)c(C)n2C(=O)c1ccc(Cl)cc1
IC50 (Bel-7402): 5900 nM | IC50 (Bel7402/5-FU [1]): 2160 nM | IC50 (L02): 1860 nM | Ratio IC50 [2]: 0.36 | Activity (Bel7402/5-FU [3]): 27.1% | Activity (Bel7402/5-FU [4]): 21.81% | Activity (Bel7402/5-FU [5]): 51.09% | Activity (Bel7402/5-FU [6]): Active | Activity (Bel7402/5-FU [7]): Active | Activity (Bel7402/5-FU [8]): Active | Activity (Bel7402/5-FU [9]): Active | Activity (Bel7402/5-FU [10]): 66.98% | Activity (Bel7402/5-FU [11]): 5.19% | Activity (Bel7402/5-FU [12]): 20.65% | Activity (Bel7402/5-FU [13]): 7.18% | Activity (Bel7402/5-FU [14]): Active | Activity (Bel7402/5-FU [15]): Active | Activity (Bel7402/5-FU [16]): Active | Ratio (Bel7402/5-FU [17]): 0.3 | Ratio (Bel7402/5-FU [18]): 0.37 | Ratio (Bel7402/5-FU [19]): 0.26 | Ratio (Bel7402/5-FU [20]): 0.51 | Ratio (Bel7402/5-FU [21]): 0.45 | Ratio (Bel7402/5-FU [22]): 0.33 | Ratio (Bel7402/5-FU [23]): 0.33 | Ratio (Bel7402/5-FU [24]): 0.35 | Ratio (Bel7402/5-FU [25]): 0.17 | Ratio (Bel7402/5-FU [26]): 0.28 | Ratio (Bel7402/5-FU [27]): 0.2 | Ratio (Bel7402/5-FU [28]): 0.42 | Ratio (Bel7402/5-FU [29]): 0.36 | Ratio (Bel7402/5-FU [30]): 0.12 | Ratio (Bel7402/5-FU [31]): 0.63 | Ratio (Bel7402/5-FU [32]): 0.39 | Ratio [33]: 0.54 | Ratio [34]: 0.37 | Ratio [35]: 0.4
